Test results reported in the OligoGym collection.
HELM strings list units from the 5' end as sugar, base in round brackets, then linkage (d deoxyribose, r ribose, m 2'-O-methyl, p phosphodiester). Strings are as the collection lists them; they lack the last nucleoside at the 3' end of the tested compound. [moe] = 2'-O-(2-methoxyethyl) (MOE); [sp] = phosphorothioate linkage; [m5C] = 5-methylcytosine

Biological target: ATXN2
Experiment: mouse, dose not given
Conditions: ASO

| Substance | 3 h FOB score [score 0-7] |
| --- | --- |
| RNA1{[moe](A)[sp].[moe](G)p.[moe]([m5C])p.[moe](A)p.[moe](T)p.d(G)[sp].d(A)[sp].d(T)[sp].d([m5C])[sp].d(T)[sp].d(T)[sp].d(G)[sp].d(T)[sp].d(G)[sp].d(T)[sp].[moe](A)p.[moe](T)p.[moe](A)[sp].[moe](T)}$$$$ (last 3' nucleoside missing) | 3 |
| RNA1{[moe](A)[sp].[moe](G)p.[moe]([m5C])p.[moe](A)p.[moe](T)p.d([m5C])[sp].d(A)[sp].d(T)[sp].d(T)[sp].d(G)[sp].d(G)[sp].d([m5C])[sp].d(G)[sp].d([m5C])[sp].d(A)[sp].[moe](T)p.[moe](G)p.[moe](G)[sp].[moe](G)}$$$$ (last 3' nucleoside missing) | 5 |
| RNA1{[moe](A)[sp].[moe](G)p.[moe]([m5C])p.[moe](A)p.[moe]([m5C])p.d(A)[sp].d(T)[sp].d(G)[sp].d(A)[sp].d(T)[sp].d(T)[sp].d(G)[sp].d(T)[sp].d(A)[sp].d(A)[sp].[moe](A)p.[moe]([m5C])p.[moe](T)[sp].[moe](A)}$$$$ (last 3' nucleoside missing) | 6 |
| RNA1{[moe](A)[sp].[moe](G)p.[moe]([m5C])p.[moe](T)p.[moe](T)p.[moe](A)p.d(G)[sp].d(A)[sp].d(G)[sp].d(T)[sp].d(T)[sp].d(T)[sp].d(T)[sp].d(T)[sp].d(G)[sp].d([m5C])[sp].[moe]([m5C])p.[moe](T)[sp].[moe](T)}$$$$ (last 3' nucleoside missing) | 5 |
| RNA1{[moe](A)[sp].[moe](G)p.[moe]([m5C])p.[moe](T)p.[moe](T)p.d(A)[sp].d(G)[sp].d(A)[sp].d(G)[sp].d(T)[sp].d(T)[sp].d(T)[sp].d(T)[sp].d(T)[sp].d(G)[sp].[moe]([m5C])p.[moe]([m5C])p.[moe](T)[sp].[moe](T)}$$$$ (last 3' nucleoside missing) | 5 |
| RNA1{[moe](A)[sp].[moe](G)p.[moe]([m5C])p.[moe](T)p.[moe]([m5C])p.d(A)[sp].d(T)[sp].d([m5C])[sp].d(A)[sp].d(A)[sp].d(G)[sp].d(G)[sp].d(T)[sp].d(A)[sp].d([m5C])[sp].[moe]([m5C])p.[moe](A)p.[moe](G)[sp].[moe](T)}$$$$ (last 3' nucleoside missing) | 4 |
| RNA1{[moe](A)[sp].[moe](G)p.[moe]([m5C])p.[moe](T)p.[moe]([m5C])p.d(T)[sp].d(G)[sp].d(T)[sp].d(T)[sp].d([m5C])[sp].d(G)[sp].d(A)[sp].d(T)[sp].d(G)[sp].d([m5C])[sp].[moe](A)p.[moe](G)p.[moe](G)[sp].[moe](A)}$$$$ (last 3' nucleoside missing) | 4 |
| RNA1{[moe](A)[sp].[moe](G)p.[moe]([m5C])p.[moe](T)p.d(T)[sp].d(A)[sp].d(G)[sp].d(A)[sp].d(G)[sp].d(T)[sp].d(T)[sp].d(T)[sp].d(T)[sp].d(T)[sp].[moe](G)p.[moe]([m5C])p.[moe]([m5C])p.[moe](T)[sp].[moe](T)}$$$$ (last 3' nucleoside missing) | 4 |
| RNA1{[moe](A)[sp].[moe](T)p.[moe](A)p.[moe](A)p.[moe](A)p.d([m5C])[sp].d(T)[sp].d(G)[sp].d(T)[sp].d(T)[sp].d(T)[sp].d(A)[sp].d([m5C])[sp].d(A)[sp].d(T)[sp].[moe]([m5C])p.[moe](T)p.[moe]([m5C])[sp].[moe]([m5C])}$$$$ (last 3' nucleoside missing) | 4 |
| RNA1{[moe](A)[sp].[moe](T)p.[moe](A)p.[moe]([m5C])p.[moe](G)p.d([m5C])[sp].d(G)[sp].d(G)[sp].d(T)[sp].d(G)[sp].d(A)[sp].d(A)[sp].d(T)[sp].d(T)[sp].d([m5C])[sp].[moe](T)p.[moe](G)p.[moe](T)[sp].[moe]([m5C])}$$$$ (last 3' nucleoside missing) | 1 |
